This is an account of results in patent publication US20150057325A1, “COMPOUNDS CAPABLE OF MODULATING/PRESERVING ENDOTHELIAL INTEGRITY FOR USE IN PREVENTION OR TREATMENT OF ACUTE TRAUMATIC COAGULOPATHY AND RESUSCITATED CARDIAC ARREST” (priority 2012, published 2015).

The conditions of data set [1]: in vivo; cited from earlier work.
The conditions of data set [2]: human, in vivo. As to the method: Ninety-four critically ill patients admitted to the intensive care unit (ICU) underwent haemofiltration with or without concomitant Flolan (prostacycline) treatment. None of the patients were suffering from Acute Traumatic Coagulopathy nor from sequelae to cardiac arrest. Flolan was administered in a low dose in the filters to prevent these from clotting and consequently there was only a minor spill over of Flolan to the systemic circulation. The patients were retrospectively reviewed.
However, patients in the flolan group were more severely ill as evaluated by a lower platelet count at start of hemofiltration, a higher frequency of severe thrombocytopenia, a higher frequency of DIC diagnoses, a higher maximum SOFA score and a higher SOFA score at hemofiltration initiation as compared to the patients receiving non-flolan.

Data set [3] in a line: Blood pressure and heart rate in healthy volunteers during intravenous flolan infusion. The class given is in vivo, human. As to conditions: 4 ng/kg/min i.v. for 2 h, any time point. As to the method:
(§1) Six healthy volunteers were administered flolan (Prostacycline) intravenously at a dose of 4 ng/kg/min for 2 h. Blood samples for whole blood viscoelastical assay (Thrombelastography [TEG]) and whole blood platelet aggregation (Multiplate) were obtained before infusion of Flolan, after 60 min infusion of Flolan and after 120 min infusion of Flolan.

Another data set has as its system whole blood. Put plainly: Whole blood viscoelastical assay (Thrombelastography, TEG) in healthy volunteers infused with flolan. The settings on record: 6 healthy volunteers, 4 ng/kg/min i.v., after 60 and 120 min infusion; kaolin. The class given is in vivo, human. As to the method: Six healthy volunteers were administered flolan (Prostacycline) intravenously at a dose of 4 ng/kg/min for 2 h. Blood samples for whole blood viscoelastical assay (Thrombelastography [TEG]) and whole blood platelet aggregation (Multiplate) were obtained before infusion of Flolan, after 60 min infusion of Flolan and after 120 min infusion of Flolan. With regard to the TEG assay this was performed as recommended by the manufacturer and 340 μl are mixed with 20 μl CaCl 0.2 M (final concentration 11.1 mM in the cup) and kaolin at 37° C. after which the haemostatic activity is recorded as depicted in FIG. 1.

In data set [4] the test system is whole blood platelet aggregation. In words: Whole blood impedance aggregometry (Multiplate) in healthy volunteers infused with flolan. The class given is in vivo, human. As to conditions: 6 healthy volunteers, 4 ng/kg/min i.v., after 60 and 120 min infusion. As to the method: as §1
Whole blood impedance aggregometry was analyzed by the Multiple Platelet function Analyzer (MultiPlate® analyzer). Analysis employing various platelet agonists: ASPItest (activation by arachidonic acid), COLtest (activation by collagen through the collagen receptor), TRAPtest (activation by TRAP-6 stimulates the thrombin receptor on the platelet surface and ADPtest (activation by ADP stimulates platelet activation by the ADP receptors).
MultiPlate continuously records platelet aggregation. The increase of impedance by the attachment of platelets onto the Multiplate sensors is transformed to arbitrary aggregation units (AU) and plotted against time as depicted in FIG. 2.

A further data set has as its system endothelium. Put plainly: Plasma biomarkers (ELISA) of endothelial, glycocalyx, necrosis and anticoagulation status in healthy volunteers after Flolan infusion. In kind it is in vivo, human. As to conditions: 8 healthy volunteers, 4 ng/kg/min i.v. for 2 h. The method, then:
Eight healthy volunteers were administered Flolan® (Prostacyclin) intravenously at a dose of 4 ng/kg/min for 2 h. Blood samples were analyzed for plasma biomarkers indicative of endothelial cell (thrombomodulin, PAI-1) and glycocalyx (syndecan-1) activation and/or damage, cellular necrosis (histone-complexed DNA fragments, HMGB1) and anticoagulation (protein C, antithrombin, TFPI) at the following time points: Before the infusion (0 h), immediately after ceasing the infusion (2 h) and then 4 h, 5 h, 6 h, 8 h and 24 h after starting the infusion. The concentration of the individual biomarkers in plasma was analyzed by commercially available ELISA kits according to the manufactures recommendations. Paired t-tests with p-values <0.05 were considered significant.
For orientation: In an ELISA, binding on a coated surface is turned into a signal by an enzyme label.

Take `CC#CCC(C)[C@H](O)/C=C/[C@@H]1[C@H]2c3cccc(CCCC(=O)O)c3O[C@H]2C[C@H]1O` (mixture of isomers) [Beraprost, beraprost]: the half time in data set [1] was 35 to 40 min.
Take `CC#CCC(C)[C@H](O)/C=C/[C@@H]1[C@H]2C/C(=C/CCCC(=O)O)C[C@H]2C[C@H]1O` (some centres unmarked) [Iloprost, iloprost]: the half time in data set [1] is 20 to 30 min.
On to `CCCCC[C@H](O)/C=C/[C@@H]1[C@H]2C/C(=C/CCCC(=O)O)O[C@H]2C[C@H]1O` [Flolan, epoprostenol sodium], for which, in data set [2], the “Platelet count (difference before vs. after haemofiltration)” value is recorded as “+14”; the “haemostatic competence as evaluated by transfusion requirements” value is on record as “does not negatively influence”; the “total transfusion requirements and specifically of FFP during hemofiltration” value is on record as “increased”. In data set [3], the “blood pressure, change from baseline” value is “did not change” and the “heart rate, change from baseline” value is listed as “did not change”. Moreover, the “TEG values (R, Angle, MA), baseline vs. samples during infusion” value with whole blood is “No significant difference”. Further, the “Multiplate values (ASPI, COL, ADP, TRAP), baseline vs. samples during infusion” value in data set [4] is on record as “no significant difference”. Also, in the data set with endothelium, the “cell necrosis biomarker HMGB1” value was “did not influence”, the “cell necrosis biomarker histone-complexed DNA fragments” value is recorded as “did not influence”, the “circulating level of PAI-1” value is on record as “declined” and the “circulating level of TFPI (affected or not)” value is “did not”. In the data set on endothelium, the “circulating level of antithrombin” value was “decreased” and the “glycocalyx shedding (syndecan-1)” value is listed as “did not induce or influence”. Also, in the data set with endothelium (5 h after starting infusion, p=0.056), the “HMGB1 at 5 h” value is recorded as “tendency towards a reduction”. Besides, the “circulating level of thrombomodulin” value in the data set with endothelium (effect continuing for several hours after ceasing infusion) is listed as “marked decrease”. The “circulating level of Protein C” value with endothelium (in the hours after ceasing infusion) is listed as “decreased”. Further, the half time in data set [1] was 0.5 to 3 min.
On to `CCCCC[C@H](O)CC[C@@H]1[C@H]2Cc3cccc(OCC(=O)O)c3C[C@H]2C[C@H]1O` [Treprostinil, treprostinil], for which, in data set [1], the half time entry is “less than 4 hours”.
